The compounds below were run against Sodium channel protein type 9 subunit alpha (Homo sapiens, UniProt Q15858) (assay: Human Nav1.7 Inhibitory Activity Evaluation).
Procedure: The amount of current through human Nav1.7 was recorded using a fully automatic patch clamp device QPatch16X (Sophion Biosciences) at room temperature. As the extracellular solution, the solution of 145 mM NaCl, 4 mM KCl, 1 mM MgCl2, 2 mM CaCl2, 10 mM Glucose, 10 mM 4-(2-hydroxyethyl)-1-piperazine ethanesulfonic acid (HEPES) at pH 7.4 was used. As the intracellular solution, the solution of 135 mM CsF, ⅕ mM glycol ether diaminetetraacetic acid (EGTA)/CsOH, 10 mM HEPES, 10 mM NaCl at pH 7.3 was used. The test compounds were dissolved in dimethyl sulfoxide (DMSO) and diluted with the extracellular solution to attain the DMSO concentration of 0.1% at the time of assay. The current response was obtained at a sampling frequency of 25 kHz, and noise was removed with a 3 kHz low-pass filter. The holding potential was −100 mV. Correction of the leakage current was carried out by applying a step pulse of −120 mV before the test pulse. In order to investigate inhibitory action of the test compound, the following test pulse was given: Namely, after depolarizing pulse of −10 mV was applied for 50 milliseconds, it was fixed at −120 mV for 500 milliseconds; a potential at which about 30-40% of the channel was inactivated was maintained for 15 seconds, then fixed again at −120 mV for 100 milliseconds, and finally a −10 mV depolarization pulse was given for 50 milliseconds. Test pulses were given before and after the test compound addition.

Sodium channel protein type 9 subunit alpha, sequence (Q15858 whole entry): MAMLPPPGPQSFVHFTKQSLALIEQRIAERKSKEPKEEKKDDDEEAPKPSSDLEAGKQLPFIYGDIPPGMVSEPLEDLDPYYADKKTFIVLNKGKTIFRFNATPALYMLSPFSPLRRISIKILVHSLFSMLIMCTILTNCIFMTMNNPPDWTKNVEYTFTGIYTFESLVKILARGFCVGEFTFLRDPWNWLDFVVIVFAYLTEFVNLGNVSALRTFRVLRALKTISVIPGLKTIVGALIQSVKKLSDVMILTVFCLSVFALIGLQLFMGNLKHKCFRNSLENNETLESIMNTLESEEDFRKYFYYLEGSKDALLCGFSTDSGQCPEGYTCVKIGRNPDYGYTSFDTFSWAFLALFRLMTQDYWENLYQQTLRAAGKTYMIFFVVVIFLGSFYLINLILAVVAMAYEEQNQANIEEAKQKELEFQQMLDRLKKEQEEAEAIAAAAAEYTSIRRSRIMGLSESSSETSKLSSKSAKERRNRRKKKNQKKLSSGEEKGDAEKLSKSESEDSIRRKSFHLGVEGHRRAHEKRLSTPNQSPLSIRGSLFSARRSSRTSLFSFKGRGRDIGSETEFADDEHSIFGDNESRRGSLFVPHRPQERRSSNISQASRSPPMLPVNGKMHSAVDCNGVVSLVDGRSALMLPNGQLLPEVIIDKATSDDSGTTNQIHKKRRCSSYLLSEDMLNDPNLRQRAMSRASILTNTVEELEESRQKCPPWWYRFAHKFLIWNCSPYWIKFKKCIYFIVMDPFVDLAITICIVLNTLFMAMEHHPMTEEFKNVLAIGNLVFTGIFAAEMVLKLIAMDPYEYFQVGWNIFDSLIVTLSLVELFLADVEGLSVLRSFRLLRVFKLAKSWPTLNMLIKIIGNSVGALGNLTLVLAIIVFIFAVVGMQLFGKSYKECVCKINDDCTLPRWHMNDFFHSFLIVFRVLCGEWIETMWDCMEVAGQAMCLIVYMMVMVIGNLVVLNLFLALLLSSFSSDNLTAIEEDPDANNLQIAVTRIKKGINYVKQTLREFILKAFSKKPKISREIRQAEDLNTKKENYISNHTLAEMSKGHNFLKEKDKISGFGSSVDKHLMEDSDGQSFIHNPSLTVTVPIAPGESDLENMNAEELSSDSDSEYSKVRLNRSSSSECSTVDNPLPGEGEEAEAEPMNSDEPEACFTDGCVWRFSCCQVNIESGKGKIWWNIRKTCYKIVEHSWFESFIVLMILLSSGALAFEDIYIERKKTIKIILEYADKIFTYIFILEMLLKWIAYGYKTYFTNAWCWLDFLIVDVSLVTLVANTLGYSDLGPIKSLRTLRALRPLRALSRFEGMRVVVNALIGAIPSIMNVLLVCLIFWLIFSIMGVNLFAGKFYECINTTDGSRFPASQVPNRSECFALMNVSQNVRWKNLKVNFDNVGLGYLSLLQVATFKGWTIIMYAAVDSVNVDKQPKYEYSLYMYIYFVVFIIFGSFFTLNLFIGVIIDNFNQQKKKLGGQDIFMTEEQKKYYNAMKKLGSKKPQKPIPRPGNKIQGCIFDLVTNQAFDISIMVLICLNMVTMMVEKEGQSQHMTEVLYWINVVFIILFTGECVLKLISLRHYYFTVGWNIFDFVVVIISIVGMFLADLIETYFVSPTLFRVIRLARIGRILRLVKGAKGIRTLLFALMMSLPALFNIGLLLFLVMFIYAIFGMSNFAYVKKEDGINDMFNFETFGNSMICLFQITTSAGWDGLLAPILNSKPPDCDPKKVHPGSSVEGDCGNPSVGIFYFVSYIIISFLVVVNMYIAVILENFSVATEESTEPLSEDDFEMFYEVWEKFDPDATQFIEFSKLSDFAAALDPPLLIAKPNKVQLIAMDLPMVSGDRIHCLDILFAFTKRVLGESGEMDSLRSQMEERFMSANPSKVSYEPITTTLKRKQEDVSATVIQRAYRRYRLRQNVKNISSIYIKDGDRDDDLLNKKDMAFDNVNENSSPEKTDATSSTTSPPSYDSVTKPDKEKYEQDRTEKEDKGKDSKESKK

`N#Cc1ccc2c(c1)C[C@@H](NC(=O)c1cc3n(n1)CCC(CC1CC1)O3)CO2` (single isomer, unassigned) [US12421225, Example 97 (isomer B)] and `CC[C@@H]1CCn2nc(C(=O)N[C@H]3COc4ccc(C#N)cc4C3)cc2O1` (single isomer, unassigned; isomer B) [US12421225, Example 92 (isomer B)] cannot be ordered by IC50: less than 1000 nM for the first, less than 1000 nM for the second.

`O=C(N[C@H]1COc2ccc(-c3ccccn3)cc2C1)c1cc2n(n1)CC[C@@H](COCC1CC1)O2` (single isomer, unassigned; isomer B) [US12421225, Example 111 (isomer B)] and `N#Cc1ccc2c(c1)C[C@@H](NC(=O)c1cc3n(n1)CC[C@@H](COCC1(F)CC1)O3)CO2` (single isomer, unassigned; isomer B) [US12421225, Example 552 (isomer B)] cannot be ordered by IC50: less than 1000 nM for the first, no more than 10000 nM for the second.

`O=C(N[C@H]1COc2ccc(CC(F)F)cc2C1)c1cc2n(n1)CC[C@@H](COCC(F)(F)F)O2` (single isomer, unassigned; isomer B) [US12421225, Example 127 (isomer B)] and `N#Cc1ccc2c(c1)C[C@@H](NC(=O)c1cc3n(n1)C[C@@H](CCCOC(F)(F)F)O3)CO2` (single isomer, unassigned; isomer B) [US12421225, Example 247 (isomer B)] cannot be ordered by IC50: less than 1000 nM for the first, less than 1000 nM for the second.

`O=C(N[C@H]1COc2ccc(Br)cc2C1)c1cc2n(n1)CC(C(F)(F)F)O2` (some centres not stated) [US12421225, Example 445] was tested, and the IC50 was less than 1000 nM.

From BindingDB's records for patent US12421225 (Kaken Pharmaceutical Co., 2025)
